# Calls of active or inactive are those of the source. The rule behind the calls is not given here.
# Key:
# Nucleic Acid [1] = test: Induction of DNA methylation at calf thymus DNA assessed as 3-MeA adduct level per mol of DNA after 24 hrs by reverse phase HPLC; assay type: nucleic-acid assay; conditions: Bos taurus
# Nucleic Acid [2] = test: Induction of DNA methylation at calf thymus DNA assessed as 3-MeA adduct level per mol of DNA at 5000 uM after 24 hrs by reverse phase HPLC in presence of 100 uM netropsin; assay type: nucleic-acid assay; conditions: Bos taurus
# MCF7 [3] = test: Cytotoxicity against human MCF7 cells after 16 hrs by MTT assay; assay type: functional, cell-based; conditions: MCF7, 16 h
# Nucleic Acid [4] = test: Induction of DNA methylation at calf thymus DNA assessed as 3-MeA adduct level per mol of DNA at 5000 uM after 24 hrs by reverse phase HPLC; assay type: nucleic-acid assay; conditions: Bos taurus
# Nucleic Acid [5] = test: Induction of DNA methylation at calf thymus DNA assessed as 7-MeG level at 500 uM after 24 hrs by reverse phase HPLC relative to methylmethane sufonate; assay type: nucleic-acid assay; conditions: Bos taurus
# Nucleic Acid [6] = test: Induction of DNA methylation at calf thymus DNA assessed as 3-MeA level at 500 uM after 24 hrs by reverse phase HPLC relative to methylmethane sufonate; assay type: nucleic-acid assay; conditions: Bos taurus
# Nucleic Acid [7] = test: Induction of DNA methylation at calf thymus DNA assessed as total adduct level at 500 uM after 24 hrs by reverse phase HPLC relative to methylmethane sufonate; assay type: nucleic-acid assay; conditions: Bos taurus
# Nucleic Acid [8] = test: Induction of DNA methylation at calf thymus DNA assessed as 7-MeG adduct level per mol of DNA at 100 uM after 24 hrs by reverse phase HPLC; assay type: nucleic-acid assay; conditions: Bos taurus
# Nucleic Acid [9] = test: Induction of DNA methylation at calf thymus DNA assessed as 7-MeG adduct level per mol of DNA at 100 uM after 24 hrs by reverse phase HPLC in presence of 100 uM netropsin; assay type: nucleic-acid assay; conditions: Bos taurus
# Nucleic Acid [10] = test: Induction of DNA methylation at calf thymus DNA assessed as 3-MeA adduct level per mol of DNA at 100 uM after 24 hrs by reverse phase HPLC in presence of 100 uM netropsin; assay type: nucleic-acid assay; conditions: Bos taurus
# Nucleic Acid [11] = test: Induction of DNA methylation at calf thymus DNA assessed as 7-MeG adduct level per mol of DNA after 24 hrs by reverse phase HPLC; assay type: nucleic-acid assay; conditions: Bos taurus
# MCF7 [12] = test: Cytotoxicity against human MCF7 cells after 16 hrs by MTT assay pretreated with 100 uM netropsin; assay type: functional, cell-based
# MCF7 [13] = test: Cytotoxicity against human MCF7 cells at 250 uM after 16 hrs by MTT assay pretreated with 250 uM fulvestrant; assay type: functional, cell-based
# MCF7 [14] = test: Ratio of Me-lex EC50 to compound EC50 for human MCF7 cells after 16 hrs by MTT assay; assay type: functional
# MCF7 [15] = test: Ratio of methylmethane sufonate EC50 to compound EC50 for human MCF7 cells after 16 hrs by MTT assay; assay type: functional
# Nucleic Acid [16] = test: Induction of DNA methylation at calf thymus DNA assessed as 7-MeG adduct level per mol of DNA at 50 uM after 24 hrs by reverse phase HPLC in presence of 100 uM netropsin; assay type: nucleic-acid assay; conditions: Bos taurus
# Nucleic Acid [17] = test: Induction of DNA methylation at calf thymus DNA assessed as 7-MeG adduct level per mol of DNA at 50 uM after 24 hrs by reverse phase HPLC; assay type: nucleic-acid assay; conditions: Bos taurus
# MCF7 [18] = test: Ratio of EC50 for human MCF7 cells pretreated with 100 uM netropsin to compound EC50 for human MCF7 cells; assay type: functional
# Nucleic Acid [19] = test: Induction of DNA methylation at calf thymus DNA assessed as 3-MeA adduct level per mol of DNA at 50 uM after 24 hrs by reverse phase HPLC; assay type: nucleic-acid assay; conditions: Bos taurus
# Nucleic Acid [20] = test: Induction of DNA methylation at calf thymus DNA assessed as 3-MeA adduct level per mol of DNA at 50 uM after 24 hrs by reverse phase HPLC in presence of 100 uM netropsin; assay type: nucleic-acid assay; conditions: Bos taurus
# MCF7 [21] = test: Cytotoxicity against human MCF7 cells at 500 uM after 16 hrs by MTT assay; assay type: functional, cell-based
# [22] = biological target: T1, Estrogen receptor (Homo sapiens) (UniProt P03372); test: (§1) Binding affinity to estrogen receptor-alpha after 2 hrs by TR-FRET assay
# T1 sequence (whole entry): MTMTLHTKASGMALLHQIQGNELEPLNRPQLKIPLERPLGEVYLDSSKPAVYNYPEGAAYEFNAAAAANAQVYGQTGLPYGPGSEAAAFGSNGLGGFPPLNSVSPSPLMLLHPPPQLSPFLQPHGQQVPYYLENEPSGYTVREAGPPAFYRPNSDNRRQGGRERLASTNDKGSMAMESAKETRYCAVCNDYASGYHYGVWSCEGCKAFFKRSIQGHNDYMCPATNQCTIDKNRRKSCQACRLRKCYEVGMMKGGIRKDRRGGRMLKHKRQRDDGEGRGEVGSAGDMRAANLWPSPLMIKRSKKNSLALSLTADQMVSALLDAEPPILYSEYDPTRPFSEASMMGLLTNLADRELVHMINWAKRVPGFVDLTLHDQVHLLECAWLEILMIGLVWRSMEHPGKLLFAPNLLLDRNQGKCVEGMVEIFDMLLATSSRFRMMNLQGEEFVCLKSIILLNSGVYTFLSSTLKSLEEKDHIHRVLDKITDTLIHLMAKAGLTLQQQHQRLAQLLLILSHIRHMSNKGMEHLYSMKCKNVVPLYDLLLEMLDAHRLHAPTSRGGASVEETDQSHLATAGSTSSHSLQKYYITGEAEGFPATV
# Estrogen receptor = biological target: T2, Estrogen receptor (Homo sapiens, UniProt P03372); test: as §1
# T2 sequence (P03372 whole entry): T1 sequence (whole entry)
structure (smiles),measurement,setting,value
COS(C)(=O)=O [METHANESULFONIC ACID METHYL ESTER],Activity,Nucleic Acid [1],9%
same,Activity,Nucleic Acid [2],1240 µmol
same,EC50,MCF7 [3],2750 µM
same,Activity,Nucleic Acid [4],1800 µmol
CCCNC(=O)CCCNC(=O)c1cc(NC(=O)c2cc(NC(=O)CCS(=O)(=O)OC)cn2C)cn1C,fold change (FC),Nucleic Acid [5],1.4
same,Activity,Nucleic Acid [1],96%
same,fold change (FC),Nucleic Acid [6],391
same,fold change (FC),Nucleic Acid [7],37
same,EC50,MCF7 [3],214 µM
same,Activity,Nucleic Acid [8],496 µmol
same,Activity,Nucleic Acid [9],614 µmol
same,Activity,Nucleic Acid [10],657 µmol
same,Activity,Nucleic Acid [11],90%
COS(=O)(=O)CCC(=O)Nc1cc(C(=O)Nc2cc(C(=O)NCCCC(=O)NCCCCCC[C@@H]3Cc4cc(O)ccc4[C@H]4CC[C@]5(C)[C@@H](O)CC[C@H]5[C@H]34)n(C)c2)n(C)c1,fold change (FC),Nucleic Acid [5],1.5
same,Activity,Nucleic Acid [1],86%
same,fold change (FC),Nucleic Acid [6],98
same,EC50,MCF7 [12],479 µM
same,Activity,MCF7 [13],inactive
same,fold change (FC),Nucleic Acid [7],11
same,EC50,MCF7 [3],135 µM
same,Ratio EC50,MCF7 [14],1.5
same,Ratio EC50,MCF7 [15],20
same,Activity,Nucleic Acid [16],279 µmol
same,Activity,Nucleic Acid [17],280 µmol
same,Ratio EC50,MCF7 [18],3
same,Activity,Nucleic Acid [11],14%
same,Activity,Nucleic Acid [19],1760 µmol
same,Activity,Nucleic Acid [20],167 µmol
Cn1cc(NC(=O)c2cc(NC(=O)CCS(C)(=O)=O)cn2C)cc1C(=O)NCCCC(=O)NCCCCCC[C@@H]1Cc2cc(O)ccc2[C@H]2CC[C@]3(C)[C@@H](O)CC[C@H]3[C@H]12,Activity,MCF7 [21],inactive
same,RBA,[22],51%
same,IC50,Estrogen receptor,0.00111 µM
